Patent US9427471B2, “Method and improved pharmaceutical composition for enhancing transdermal delivery of PDE-5 inhibitor” (Tritech Biopharmaceuticals Co., Ltd., priority 2011, dated 2016)

Experiments:
[1] = In vivo skin permeation analysis (applied to rabbit ear, vardenafil in blood); conditions: gel formulations (about 0.5 ml, blood drawn after 1 hour) or skin patch (6 hours) with enhancer(s) applied to left ear of rabbit, blood from right ear artery; FIG. 2
Method: In vivo skin permeation tests were carried out using the gel formulations of example 2.1 and the skin patch of example 2.2. Briefly, small aliquots (about 0.5 ml) of gel formulations #1 to 4 or a small piece of the skin patch (3 cm×5 cm×0.15 cm) was applied to the left ear of a rabbit, after certain period of time, 1 ml of blood was drawn from the rabbit's right ear artery and analyzed for the amount of vardenafil. Specifically, the blood was drawn after 1 hour when gel formulation was used; and 6 hours when skin patch was applied. Results are illustrated in FIG. 2.

[2] = type: in vitro ADME; conditions: Sprague-Dawley, rat, 1 % (wt %)
Method: The permeation test was carried out using in vitro Franz diffusion cell with a diffusion area of 0.785 cm^2. A piece of rat (Sprague-Dawley) skin tissue was mounted between the two half-cells and fastened with a clamp. Aliquots of 1% (wt %) vardenafil with or without the addition of the enhancer of this disclosure, such as 0.3% (wt %) cocamidopropyl betaine, 1% (wt %) sodium lauroamphoacetate, 1% (wt %) isostearamidopropyl morpholine lactate, 1% (wt %) quaternium-60 or dipropyl glycol, were applied to the Donor compartment to start the experiment. The receiver compartment was filled with PBS and the temperature was held at 37° C. Samples were taken at certain time intervals and assayed by HPLC.

Q: Which “increase of the amount of vardenafil found in the blood stream as compared with control” value [1] does the source give for `CCCc1nc(C)c2c(=O)[nH]c(-c3cc(S(=O)(=O)N4CCN(CC)CC4)ccc3OCC)nn12` [vardenafil] here?
A: 4 to 5 folds

Q: What about the “increase of the amount of vardenafil in the receiving side of Franz Diffusion chamber as compared with control” value [2] of the same compound?
A: 0.5-2 folds
